{
  "source": "patent US20200362305A1",
  "about": "“EFFICIENT INFECTION OF PRIMARY KER[…] HPV16” (Board of Supervisors of Louisiana State University and …, priority 2018, published 2020)",
  "test_system": "HPV16",
  "experiment": "HPV16 infection of primary keratinocytes by ECM-to-cell transfer, cells grown with or without Y-27632",
  "assay_type": "cell-based, human",
  "conditions": "primary cells grown in the presence or absence of the Rho kinase inhibitor Y-27632",
  "description": "Human embryonic kidney 293TT and HeLa cells were obtained from John Schiller and Daniel DiMaio, respectively. They were cultured in DMEM supplemented with 10% FBS, non-essential amino acids, antibiotics, and L-Glutamax. Spontaneously immortalized human keratinocytes HaCaT cells were purchased from the American Type Culture Collection (ATCC) and grown in low glucose DMEM containing 5% FBS and antibiotics. Human foreskin keratinocytes (HFKs) were derived from neonatal human foreskin epithelia and maintained in E medium containing mouse epidermal growth factor (EGF) and mitomycin-treated mouse 3T3 J2 fibroblasts. Pooled primary epithelial keratinocytes were also purchased from the ATCC (PCS-200-010) and used in some experiments. In early experiments where indicated, the inventors maintained and infected primary keratinocytes in the presence of the Rho kinase inhibitor (ROCK) Y-27632, which was reported to increase their lifespan. However, the ROCK inhibitor was excluded prior and during experiments involving long term culturing of infected primary cells. Stable cell lines containing HPV16 episomes were created by co-transfection of pEGFP-N1-HPV16 containing the HPV16 genome (W12 strain) with an expression vector for Cre recombinase and a Neomycin resistance plasmid. […]",
  "data": [
    {"smiles": "C[C@@H](N)[C@H]1CC[C@H](C(=O)Nc2ccncc2)CC1", "note": "[Y-27632]", "values": [
      {"measurement": "infection efficiency", "value": "no significant difference"}
    ]}
  ]
}
